Values of other authors, collected in patent publication US10711094B2, “Conjugated polymer nanoparticles, methods of using, and methods of making” (KING ABDULLAH UNIVERSITY OF SCIENCE AND TECHNOLOGY, priority 2015, dated 2020).

Conditions: in ethanol

Compound: O=C(O)c1ccccc1C1=c2cc3c4c(c2Oc2c1cc1c5c2CCCN5CCC1)CCC[N+]=4CCC3.[Cl-] [Rhodamine 101]
- fluorescence quantum yield (Φfl) of reference dye: 96%
